Laboratory results published in BigSolDB 2.1.

CC(C)(C)OC(=O)N1CCC[C@H]1C(=O)O
solubility (mole fraction)
Conditions	283.15 K	288.15 K	293.15 K	298.15 K	303.15 K	313.15 K	323.15 K
in 2-butanone	0.0371	–	0.0532	–	0.0687	0.0925	0.125
in acetone	0.0457	–	0.06	–	0.075	0.0965	0.129
in acetonitrile	0.0113	–	0.0166	–	0.0247	0.0379	0.054
in dichloromethane	0.0896	0.098	0.107	0.116	0.125	–	–
in ethanol	0.0968	–	0.111	–	0.133	0.172	0.215
in ethyl acetate	0.0217	–	0.0303	–	0.0392	0.0494	0.0606
in isobutanol	0.072	–	0.0942	–	0.12	0.143	0.166
in isopropanol	0.0971	–	0.114	–	0.134	0.168	0.208
in methanol	0.115	–	0.15	–	0.196	0.24	0.297
in methyl acetate	0.0252	–	0.0339	–	0.0436	0.055	0.0698
in n-butanol	0.0889	–	0.103	–	0.126	0.149	0.178
in n-propanol	0.0944	–	0.109	–	0.132	0.16	0.19
in sec-butanol	0.0968	–	0.127	–	0.157	0.193	0.232
in water	6.6e-05	–	0.000204	–	0.000593	0.000959	0.00144
